In publication PMC6385122, “Design and Synthesis of Arylamidine Derivatives as Serotonin/Norepinephrine Dual Reuptake Inhibitors” (Molecules, 2019):
Where a name gives a salt, the structure may show the parent alone.

Columns and labels:
[1] = biological target: T1, 5-HT reuptake (5-HT transporter) (Rattus norvegicus, UniProt P31652); assay: Inhibition of 5-HT reuptake in rat brain synaptosome (3H-5-HT uptake); format: biochemical; details: for inhibition at 10 µM: read-out: 5-HT reuptake percent inhibition
T1 construct: from tissue; host or cells: Wistar rat brain (procerebrum; crude synaptosomal supernatant)
T1 sequence (P31652 whole entry): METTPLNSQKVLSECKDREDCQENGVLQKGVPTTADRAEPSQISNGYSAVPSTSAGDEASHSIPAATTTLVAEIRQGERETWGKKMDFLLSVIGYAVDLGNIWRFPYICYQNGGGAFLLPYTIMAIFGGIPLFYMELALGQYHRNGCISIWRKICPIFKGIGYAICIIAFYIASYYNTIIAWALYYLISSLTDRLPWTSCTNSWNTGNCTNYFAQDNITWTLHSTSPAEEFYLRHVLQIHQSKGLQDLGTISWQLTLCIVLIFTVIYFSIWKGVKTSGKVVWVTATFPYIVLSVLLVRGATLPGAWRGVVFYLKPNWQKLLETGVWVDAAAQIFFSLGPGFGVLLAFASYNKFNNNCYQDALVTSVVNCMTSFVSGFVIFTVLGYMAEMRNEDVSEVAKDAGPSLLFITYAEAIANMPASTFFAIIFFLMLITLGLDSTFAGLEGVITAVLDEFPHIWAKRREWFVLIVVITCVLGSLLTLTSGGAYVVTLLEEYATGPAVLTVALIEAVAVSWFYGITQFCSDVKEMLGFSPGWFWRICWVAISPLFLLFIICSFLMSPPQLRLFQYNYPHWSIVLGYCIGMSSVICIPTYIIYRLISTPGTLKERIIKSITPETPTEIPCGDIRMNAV
Experimental: (§1) All the target compounds were evaluated for their inhibitory activity against the reuptake of 5-HT and NE at the cellular level. Rat brain tissue was used for the uptake test, which included ^3H-5-HT and ^3H-NE [15]. 1-[7,8-^3H]-Noradrenaline and 5-hydroxy-[^3H]-tryptamine trifluoroacetate were obtained from Amersham Corporation.
(§2) Adult male Wistar rats were used. Animals were killed by decapitation and the whole brain, with the exception of the brainstem and cerebellum, was quickly removed. The procerebrum region was prepared, weighed, and homogenized in 10 volumes of ice-cold 0.32 mol/L sucrose solution using a glass homogenizer. The homogenate was centrifuged at 1000× g and 4 °C for 10 min. The supernatant was decanted and used for the uptake experiments. […] For each assay, three tubes were incubated with the vehicle (20 µL) at 0 °C in an ice bath. After incubation, the tubes were immediately filtered with a cell harvester. The fiberglass filter membrane was washed three times with ice-cold saline, placed in a scintillation vial, and counted in liquid scintillation cocktail (4 mL). Active uptake was the difference between the counts per minute at 37 and 0 °C. The percent inhibition at each drug concentration was the mean of three measurements.

[2] = biological target: T2, NE reuptake (NE transporter) (Rattus norvegicus, UniProt Q63380); assay: Inhibition of NE reuptake in rat brain synaptosome (3H-NE uptake); format: biochemical; details: for inhibition at 10 µM: read-out: NE reuptake percent inhibition
T2 construct: from tissue; host or cells: Wistar rat brain (procerebrum; crude synaptosomal supernatant)
T2 sequence (Q63380 1-617): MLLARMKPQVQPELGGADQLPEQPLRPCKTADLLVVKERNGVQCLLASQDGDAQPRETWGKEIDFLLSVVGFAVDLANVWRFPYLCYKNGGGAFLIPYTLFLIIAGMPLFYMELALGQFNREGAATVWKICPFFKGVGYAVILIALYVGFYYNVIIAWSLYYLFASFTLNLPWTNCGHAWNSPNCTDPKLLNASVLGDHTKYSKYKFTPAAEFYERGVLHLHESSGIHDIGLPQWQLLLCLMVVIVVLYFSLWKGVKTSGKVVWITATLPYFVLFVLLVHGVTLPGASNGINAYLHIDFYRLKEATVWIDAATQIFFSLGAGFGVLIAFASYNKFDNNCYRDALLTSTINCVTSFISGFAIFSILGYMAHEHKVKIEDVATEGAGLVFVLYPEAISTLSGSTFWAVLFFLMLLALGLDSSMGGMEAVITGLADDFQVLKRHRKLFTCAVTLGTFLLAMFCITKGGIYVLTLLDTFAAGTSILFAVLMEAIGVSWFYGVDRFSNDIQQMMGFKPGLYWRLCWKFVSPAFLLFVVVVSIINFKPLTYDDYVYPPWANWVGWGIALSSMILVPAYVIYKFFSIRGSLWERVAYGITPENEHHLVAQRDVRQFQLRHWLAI
Experimental: as §1, §2

rats = assay: Tail suspension test (TST) in rats; format: in vivo, rat; details: male rats, 30 mg/kg PO; for Immobility Time: 60 min after administration; for Rate of Shorten Time (%): compared with the negative control group
Experimental: Based on the in vitro results, compounds I-19, II-4, and II-5 were selected for the tail suspension test (TST) in rats. The TST has been used widely as a preclinical model for screening antidepressant activity, and it is sensitive to commercially available antidepressant drugs. In the assay, rats are suspended by tail and the time that the animal is immobile is recorded. The compounds were administered to male rats at a dose of 30 mg/kg (PO). […] In addition, the safety profile of compound II-5 was also explored with a preliminary acute toxicity test in mice at a single dose of 200 or 400 mg/kg (PO) (n = 6).
For two days before the formal experiment, the rats in each group were given doses orally once a day in the morning and in the afternoon. The rats were given doses orally once in each group in the formal experiment. After 60 min of administration, the rats were suspended head-down more than 50 cm from the ground with a 12-cm-long piece of insulating tape at a distance of 1 cm from the tail tip. The distance between adjacent rats was 15 cm. The immobility time of the rats was recorded. The rate of change in the immobility time of the rats in the test drug group and the positive control group was calculated and compared with the negative control group. Statistical analysis was performed using Prism 7.0 (GraphPad Software, San Diego, CA, USA).

[3] = Preliminary acute toxicity test in mice; format: in vivo; details: male, ICR, mouse, in vivo; mice, PO, 20 h
Experimental: (§3) In the assay, rats are suspended by tail and the time that the animal is immobile is recorded. The compounds were administered to male rats at a dose of 30 mg/kg (PO).
(§4) Male ICR mice (20–25 g) were used from Institute of Materia Medica, Chinese Academy of Medical Sciences, Beijing, China. Mice were randomly divided into two groups with six mice each. Mice were orally given II-5 with a single dose 200 and 400 mg/kg or vehicle control, respectively. The mouse death was monitored for 20 h after treatment.

mice = assay: Preliminary acute toxicity test in mice; format: in vivo; details: male ICR mice, n = 6
Experimental: as §3, §4

SMILES	inhibition at 10 µM [1] [%]	inhibition at 10 µM [2] [%]	melting point [°C]	IC50 [1] [nM]	IC50 [2] [nM]	Immobility Time (rats) [s]	Rate of Shorten Time (%) (rats)	LD50 at 20 h [3] [mg/kg]	Survival at 20 h (mice; single dose 200 mg/kg PO) [%]	Survival at 20 h (mice; single dose 400 mg/kg PO) [%]
COc1ccc(/C(=N\Cc2ccccc2)N2CCNCC2)cc1.Cl [Compound I-1, (E)-N-((4-Methoxyphenyl)(piperazin-1-yl)methylene)-1-phenylmethanamine hydrochloride]	65	67	195 to 197	–	–	–	–	–	–	–
N#Cc1cccc(/C(=N\Cc2ccc(Cl)cc2)N2CCNCC2)c1 [Compound I-19, (E)-1-(4-Chlorophenyl)-N-((3-cyanophenyl)(piperazin-1-yl)methylene)methanaminehydrochloride]	82	78	–	830	560	34 ± 17	37.8	–	–	–
CNCC[C@H](Oc1cccc2ccccc12)c1cccs1 [Duloxetine, reference compound]	–	–	–	–	–	11 ± 5	79.0	–	–	–
Fc1ccccc1/C(=N\Cc1cccc2ccccc12)N1CCNCC1 [II-4, (E)-N-((2-Fluorophenyl)(piperazin-1-yl)methylene)-1-(naphthalen-1-yl)methanaminehydrochloride]	90	78	–	130	880	33 ± 19	39.7	–	–	–
Clc1ccccc1/C(=N\Cc1cccc2ccccc12)N1CCNCC1 [II-5, (E)-N-((2-Chlorophenyl)(piperazin-1-yl)methylene)-1-(naphthalen-1-yl)methanaminehydrochloride]	81	92	–	620	10	18 ± 7	67.8	> 400	100	100
